Structures can show the parent of a compound that is named as a salt. Where two headings read alike, the source gives them in different places.
Legend:
[1] = test system: A549-ACE2-TMPRSS2GFP cells; conditions: 20 hours post infection
[2] = Solubility of Apilimod and Nafamostat in different vehicles (visible precipitate); type: physicochemical; conditions: for precipitate in solution: 1 mg/ml Apilimod di-mesylate, 2 mg/ml Nafamostat mesylate, 12 hours at room temperature, also seen after centrifugation; for solubility in deionized water: mixed and dissolved in deionized (MilliQ) water; for solubility in solutions containing salt: phosphate buffer saline (PBS) or DMEM cell culture medium, particularly when together
Description: FIGS. 1A-1B show the solubility of Apilimod and Nafamostat in different vehicles. […] Magnified images of the boxed areas are shown on the right panels.
This is the reason why our drug mixtures were made in deionized (MilliQ) water as stocks and for intranasal administration. While the mouse nose tolerates exposure to deionized (MilliQ) water, for humans it may be necessary to adjust the osmolarity of the solution, for example by adding sucrose.

[3] = Pharmacokinetics in plasma; type: in vivo
Vero-E6 cells = conditions: 20 hours post infection

For `N=C(N)c1ccc2cc(OC(=O)c3ccc(N=C(N)N)cc3)ccc2c1` [Nafamostat mesylate], the “number of cells, normalized to vehicle-treated infected cells” value (from here on “number of cells, normalized”) ([1]; drug stock prepared in DMEM) was “Significant loss of cells”, the “number of cells, normalized” value ([1]; drug stock prepared in PBS) was “Significant loss of cells” and the precipitate in solution ([2]; in DMEM) was “a precipitate is observable”. The precipitate in solution ([2]; in PBS) was “a precipitate is observable”, the “solubility in deionized water” value [2] was “substantially increased” and the “solubility in solutions containing salt” value [2] was “relatively insoluble and precipitate”. For the same compound, the half-life in plasma [3] was “relatively short half-life times (minutes)”.
With “N-[(E)-(3-methylphenyl)methylidencamino]-6-morpholin-4-yl-2-(2-pyridin-2-ylethoxy)pyrimidin-4-amine [Apilimod dimesylate]” the precipitate in solution ([2]; in DMEM) was “a precipitate is observable”, the precipitate in solution ([2]; in PBS) was “a precipitate is observable” and the “solubility in deionized water” value [2] was “substantially increased”. For the same compound, the “solubility in solutions containing salt” value [2] was “relatively insoluble and precipitate”, the “number of cells, normalized” value (Vero-E6 cells; drug stock prepared in DMEM) was “Significant loss of cells” and the “number of cells, normalized” value (Vero-E6 cells; drug stock prepared in PBS) was “Significant loss of cells”. For the same compound, the half-life in plasma [3] was “relatively short half-life times (minutes)”.
